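Compound exposure: 48 hours, 5 concentrations, 96-well plates. The concentration for 50% growth inhibition is given as GI50.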 The source made the active and inactive calls. Rule as the data show it: active = GI50 up to about 1.1 µM and inactive = higher.
Experiments:
Test in all cases: inhibition of tumour cell growth, NCI panel, 48 h
SNB-19 = tested on: SNB-19
K562 = tested on: K562
HCT-15 = tested on: HCT-15
UACC-62 = tested on: UACC-62
Hs-578T = tested on: Hs-578T
OVCAR-5 = tested on: OVCAR-5
SK-OV-3 = tested on: SK-OV-3
SN12C = tested on: SN12C
SK-MEL-5 = tested on: SK-MEL-5
KM12 = tested on: KM12
SK-MEL-2 = tested on: SK-MEL-2
EKVX = tested on: EKVX
CAKI-1 = tested on: CAKI-1
NCI-H23 = tested on: NCI-H23
MDA-MB-231 = tested on: MDA-MB-231
DU-145 = tested on: DU-145
NCI-H226 = tested on: NCI-H226
T47D = tested on: T47D
CCRF-CEM = tested on: CCRF-CEM

`CC1OC(OC2C(OC(=O)[C@@H]3CC(C)(C)C[C@@H]4C5=CC[C@@H]6[C@@]7(C)C[C@H](O)[C@H](OC8OC(CO)C(O)C(O)C8O)[C@@](C)(CO)C7[C@H](O)C[C@@]6(C)[C@]5(C)C[C@@H](O)[C@H]43)OCC(O)C2O)C(O)C(O)C1O` (stereo partly drawn) was tested, and the GI50 (SNB-19) was > 15 µM (inactive), the GI50 (K562) was > 15 µM (inactive) and the GI50 (HCT-15) was > 15 µM. For the same compound, the GI50 (UACC-62) was > 15 µM (inactive), the GI50 (Hs-578T) was > 15 µM (inactive) and the GI50 (OVCAR-5) was 7.96 µM (inactive). For the same compound, the GI50 (SK-OV-3) was > 15 µM (inactive), the GI50 (SN12C) was 5.57 µM (inactive) and the GI50 (SK-MEL-5) was > 15 µM (inactive). For the same compound, the GI50 (KM12) was > 15 µM (inactive), the GI50 (SK-MEL-2) was > 15 µM (inactive) and the GI50 (EKVX) was 9.73 µM (inactive). The GI50 (CAKI-1) was > 15 µM (inactive), the GI50 (NCI-H23) was 7.05 µM (inactive) and the GI50 (MDA-MB-231) was > 15 µM (inactive). For the same compound, the GI50 (DU-145) was > 15 µM (inactive), the GI50 (NCI-H226) was > 15 µM (inactive) and the GI50 (T47D) was > 15 µM (inactive). The GI50 (CCRF-CEM) was > 15 µM (inactive).

In the case of `CCOC(=O)C(NC(=O)CC(C)C)(N1CCN(c2cc3c(cc2F)c(=O)c(C(=O)O)cn3C2CC2)CC1)C(F)(F)F` (stereo not drawn), the GI50 (SNB-19) is reported as 28.8 µM (inactive), the GI50 (K562) is reported as 11 µM (inactive) and the GI50 (HCT-15) is reported as 10 µM. For the same compound, the GI50 (UACC-62) was 15.2 µM (inactive), the GI50 (Hs-578T) was 21.8 µM (inactive) and the GI50 (OVCAR-5) was 17.7 µM (inactive). For the same compound, the GI50 (SK-OV-3) was 24 µM (inactive), the GI50 (SN12C) was 27.5 µM (inactive) and the GI50 (SK-MEL-5) was 12.7 µM (inactive). The GI50 (KM12) was 13.6 µM (inactive), the GI50 (SK-MEL-2) was 20 µM (inactive) and the GI50 (EKVX) was 23.4 µM (inactive). For the same compound, the GI50 (CAKI-1) was 24.9 µM (inactive), the GI50 (NCI-H23) was 7.46 µM (inactive) and the GI50 (MDA-MB-231) was 22 µM (inactive). The GI50 (DU-145) was 34.4 µM (inactive), the GI50 (NCI-H226) was 20.7 µM (inactive) and the GI50 (T47D) was 22.9 µM (inactive). For the same compound, the GI50 (CCRF-CEM) was 3.32 µM (inactive).

`O=C(Cc1ccccc1)N/N=C/c1ccccc1O` was tested, and the GI50 (SNB-19) was 33.1 µM (inactive), the GI50 (K562) was 13.9 µM (inactive) and the GI50 (HCT-15) was 4.25 µM. The GI50 (UACC-62) was 8.95 µM (inactive), the GI50 (Hs-578T) was 36.1 µM (inactive) and the GI50 (OVCAR-5) was 20.6 µM (inactive). For the same compound, the GI50 (SK-OV-3) was 15.9 µM (inactive), the GI50 (SN12C) was 17.2 µM (inactive) and the GI50 (SK-MEL-5) was 12 µM (inactive). The GI50 (KM12) was 32.7 µM (inactive), the GI50 (SK-MEL-2) was > 100 µM (inactive) and the GI50 (EKVX) was 5.28 µM (inactive). For the same compound, the GI50 (CAKI-1) was 5.92 µM (inactive), the GI50 (NCI-H23) was 17.8 µM (inactive) and the GI50 (MDA-MB-231) was > 100 µM (inactive). The GI50 (DU-145) was 23.3 µM (inactive), the GI50 (NCI-H226) was 14.1 µM (inactive) and the GI50 (T47D) was 4.29 µM (inactive). The GI50 (CCRF-CEM) was 4.94 µM (inactive).

With `NC(=O)c1nnsc1NN=O` the GI50 (SNB-19) was > 100 µM (inactive), the GI50 (K562) was > 100 µM (inactive) and the GI50 (HCT-15) was > 100 µM. For the same compound, the GI50 (UACC-62) was > 100 µM (inactive), the GI50 (Hs-578T) was > 100 µM (inactive) and the GI50 (OVCAR-5) was > 100 µM (inactive). The GI50 (SK-OV-3) was > 100 µM (inactive), the GI50 (SN12C) was > 100 µM (inactive) and the GI50 (SK-MEL-5) was > 100 µM (inactive). For the same compound, the GI50 (KM12) was > 100 µM (inactive), the GI50 (SK-MEL-2) was > 100 µM (inactive) and the GI50 (EKVX) was > 100 µM (inactive). The GI50 (CAKI-1) was > 100 µM (inactive), the GI50 (NCI-H23) was > 100 µM (inactive) and the GI50 (MDA-MB-231) was > 100 µM (inactive). The GI50 (DU-145) was > 100 µM (inactive), the GI50 (NCI-H226) was > 100 µM (inactive) and the GI50 (T47D) was > 100 µM (inactive). The GI50 (CCRF-CEM) was > 100 µM (inactive).

For `O/N=C1/Nc2ccccc2C(=S)N2CSCC12` (stereo not drawn), the GI50 (SNB-19) was 50.4 µM (inactive), the GI50 (K562) was 22.8 µM (inactive) and the GI50 (HCT-15) was > 100 µM. The GI50 (UACC-62) was 87.5 µM (inactive), the GI50 (Hs-578T) was > 100 µM (inactive) and the GI50 (OVCAR-5) was > 100 µM (inactive). The GI50 (SK-OV-3) was > 100 µM (inactive), the GI50 (SN12C) was 34 µM (inactive) and the GI50 (SK-MEL-5) was 23.4 µM (inactive). The GI50 (KM12) was 33 µM (inactive), the GI50 (SK-MEL-2) was > 100 µM (inactive) and the GI50 (EKVX) was > 100 µM (inactive). For the same compound, the GI50 (CAKI-1) was > 100 µM (inactive), the GI50 (MDA-MB-231) was > 100 µM (inactive) and the GI50 (DU-145) was > 100 µM (inactive). The GI50 (NCI-H226) was > 100 µM (inactive), the GI50 (T47D) was 54.2 µM (inactive) and the GI50 (CCRF-CEM) was 20.2 µM (inactive).

With `CCOC(=O)C1=c2[nH]c3cccc4cccc(c43)n2C(=O)CC1c1ccccc1` (stereo not drawn) the GI50 (SNB-19) was > 100 µM (inactive), the GI50 (K562) was > 100 µM (inactive) and the GI50 (HCT-15) was > 100 µM. The GI50 (UACC-62) was > 100 µM (inactive), the GI50 (Hs-578T) was > 100 µM (inactive) and the GI50 (OVCAR-5) was > 100 µM (inactive). For the same compound, the GI50 (SK-OV-3) was > 100 µM (inactive), the GI50 (SN12C) was > 100 µM (inactive) and the GI50 (SK-MEL-5) was > 100 µM (inactive). For the same compound, the GI50 (KM12) was > 100 µM (inactive), the GI50 (SK-MEL-2) was > 100 µM (inactive) and the GI50 (EKVX) was > 100 µM (inactive). The GI50 (CAKI-1) was > 100 µM (inactive), the GI50 (NCI-H23) was > 100 µM (inactive) and the GI50 (MDA-MB-231) was > 100 µM (inactive). The GI50 (DU-145) was > 100 µM (inactive), the GI50 (NCI-H226) was > 100 µM (inactive) and the GI50 (T47D) was > 100 µM (inactive). The GI50 (CCRF-CEM) was > 100 µM (inactive).

Reference: ChEMBL document CHEMBL1201862, “PubChem BioAssay data set” (2004)
